Read-outs that look alike come from different tables or passages of the source. Where a SMILES comes first, the peptide text is derived from it. [ ]: non-standard residue; d: D form. The star is where a group is joined. X4 = CC1=C(C*)C2=C(C)C3(CC3)[C@@](C)(O)C(=O)C2=C1
Key:
Experiment in all cases: cells
[1] = system: 8392B Nontarget Cell Line (hematopoietic); details: 2 h
[2] = system: MV522 Target Cell Line (lung-derived adenocarcinoma); details: MV522, 2 h, read-out: Mean IC50 value
[3] = system: MV522 Target Cell Line (lung-derived adenocarcinoma); details: MV522, 48 h, read-out: Mean IC50 value
[4] = system: 8392B Nontarget Cell Line (hematopoietic); details: 48 h, read-out: Mean IC50 value
[5] = read-out: Mean IC50 value, 8392B Nontarget Cell Line, 2 hr exposure, ± SD, N = 3 unless otherwise indicated

Row | Compound | IC50 [1, 5] | IC50 [2] | IC50 [3] | IC50 [4] | IC50 ([1]; read-out: Mean IC50 value)
1 | CC1=C2C=CC=C2C(=O)C(O)C12CC2 (stereo not drawn) [Analog 035] | > 150 µM | 5.6 ± 0.6 µM |  |  | 
2 | CC(=O)O[C@@]1(C)C(=O)C2=CC(C)=C(CO)C2=C(C)C12CC2 [Analog 015] | 0.81 ± 0.26 µM |  | 0.48 ± 0.11 µM |  | 
3 | CC1=C(CSCC(N)C(=O)O)C2=C(C)C3(CC3)[C@@](C)(O)C(=O)C2=C1 (stereo partly drawn) [Analog 037] | > 85 µM |  | 29.2 ± 2.3 µM |  | 
4 | COC(CCC1=C(C)C=C2C(=O)[C@](C)(O)C3(CC3)C(C)=C21)OC [Analog 039] | 24.6 ± 2.4 µM |  | 0.6 ± 0.04 µM |  | 
5 | COCC1=C(COC)C2=C(C)C3(CC3)[C@@](C)(O)C(=O)C2=C1 [Analog 082] | > 100 µM | 50.6 ± 7.1 µM |  |  | 
6 | CC1=C(CCC=NNS(=O)(=O)c2ccc(C)cc2)C2=C(C)C3(CC3)[C@@](C)(O)C(=O)C2=C1 [Analog 123] |  |  | 0.6 ± 0.06 µM |  | 
7 | CC1=C2C(=CC(CO)=C2CO)C(=O)[C@](C)(O)C12CC2 [Analog 063] |  |  | 0.58 ± 0.25 µM |  | 
8 | CC1=C2C=C(CO)C=C2C(=O)[C@](C)(O)C12CC2 [Analog 062] | 37.1 ± 2.3 µM |  | 0.66 ± 0.2 µM |  | 
9 | CC(=O)OCC1=C(CO)C2=C(C)C3(CC3)[C@@](C)(O)C(=O)C2=C1 [Analog 077] |  | 9.2 ± 1.2 µM |  |  | 
10 | CC(=O)OCC1=C(CO)C=C2C(=O)[C@](C)(OC(C)=O)C3(CC3)C(C)=C21 [Analog 103] | 12.1 ± 2 µM | 31.8 ± 4.9 µM | 5.9 ± 0.4 µM |  | 
11 | CC(=O)N[C@@H](CSCC1=C(C)C=C2C(=O)[C@](C)(O)C3(CC3)C(C)=C21)C(=O)N[C@@H](CC(C)C)C(=O)N[C@@H](CC(C)C)C(=O)N[C@@H](C=O)Cc1ccccc1 [Analog 085] (Ac-C(X4)LL[dF]-aldehyde) |  | > 40 µM | > 40 µM |  | 
12 | CC(=O)ON=CCCC1=C(C)C=C2C(=O)[C@](C)(O)C3(CC3)C(C)=C21 [Analog 124] | > 30 µM |  | 0.87 ± 0.35 µM |  | 
13 | CC1=C(CSCC(O)CO)C2=C(C)C3(CC3)[C@@](C)(O)C(=O)C2=C1 (stereo partly drawn) [Analog 032] | > 30 µM | 0.6 ± 0.19 µM |  |  | 
14 | CC1=C2C(=C[C@@]3(C)COCO[C@@H]23)C(=O)[C@](C)(O)C12CC2 [Analog 014] | 9.65 ± 0.2 µM | 0.115 ± 0.03 µM |  |  | 
15 | CCOCC1=C(C)C=C2C(=O)[C@](C)(O)C3(CC3)C(C)=C21 [Analog 016] | > 100 µM | 0.49 ± 0.13 µM |  | 0.87 ± 0.06 µM | 
16 | COCC1=CC2=C(C)C3(CC3)[C@@](C)(O)C(=O)C2=C1 [Analog 079] | > 100 µM |  |  |  | 

Row | Compound | IC50 [1, 5] | IC50 [2] | IC50 [3] | IC50 [4] | IC50 ([1]; read-out: Mean IC50 value)
17 | COCC1=C(C)C=C2C(=O)[C@](C)(O)C3(CC3)C(C)=C21 [Analog 080] | > 100 µM | 8.8 ± 2.4 µM |  |  | 
18 | CC1=C(CSCC[C@H](N)C(=O)O)C2=C(C)C3(CC3)[C@@](C)(O)C(=O)C2=C1 [Analog 097] | > 82 µM |  |  |  | 
19 | CC1=C(CCC(=O)OC2CCC3(C)C(CCC4C3CC[C@]3(C)C(=O)CCC43)C2)C2=C(C)C3(CC3)[C@@](C)(O)C(=O)C2=C1 (stereo partly drawn) [Analog 112] | 14.9 ± 0.1 µM |  |  | 5.2 ± 0.3 µM | 
20 | CC1=C2C(=CC(C)(C)[C@@H]2OC(=O)CCCC(=O)Oc2ccc3c(c2)CCC2C3CC[C@]3(C)C(O)CCC23)C(=O)[C@](C)(O)C12CC2 (stereo partly drawn) [Analog 109] |  | > 50 µM |  |  | > 50 µM
21 | CC1=C(CCC(O)CO)C2=C(C)C3(CC3)[C@@](C)(O)C(=O)C2=C1 (stereo partly drawn) [Analog 119] | > 33 µM |  |  | > 10 µM | 
22 | CC1=C(CCC=NNc2ccc([N+](=O)[O-])cc2[N+](=O)[O-])C2=C(C)C3(CC3)[C@@](C)(O)C(=O)C2=C1 [Analog 125] | 15.5 ± 1.4 µM | 3.7 ± 0.6 µM |  | 0.6 ± 0.1 µM | 
23 | CC1=C(COCCO)C2=C(C)C3(CC3)[C@@](C)(O)C(=O)C2=C1 [Analog 022] | 31.7 ± 1.4 µM |  |  |  | 
24 | CC1=C2C(=C[C@@](C)(COC(=O)CCCC(=O)O)C2OC(=O)CCCC(=O)O)C(=O)[C@](C)(O)C12CC2 (stereo partly drawn) [Analog 117] |  |  |  | 0.01 ± 0.002 µM | 
25 | CC1=C(CCC(O)C#N)C2=C(C)C3(CC3)[C@@](C)(O)C(=O)C2=C1 (stereo partly drawn) [Analog 127] | > 30 µM | 0.87 ± 0.03 µM |  |  | 
26 | COC(=O)CSCC1=C(C)C=C2C(=O)[C@](C)(O)C3(CC3)C(C)=C21 [Analog 025] | > 25 µM |  |  |  | 
27 | CC1=C2C=CC=C2C(=O)C2(OCCO2)C12CC2 [Analog 033] | 29.9 ± 3.3 µM |  | 4.6 ± 0.2 µM |  | 
28 | COCC1=C(CO)C=C2C(=O)[C@](C)(O)C3(CC3)C(C)=C21 [Analog 081] | > 80 µM | > 80 µM |  |  | 
29 | CC1=C2C(=O)[C@](C)(CO)C=C2C(=O)[C@](C)(O)C12CC2 [Analog 099] | 4 ± 0.4 µM | 8.4 ± 1.1 µM |  |  | 
30 | CC1=C(COCC(O)CO)C2=C(C)C3(CC3)[C@@](C)(O)C(=O)C2=C1 (stereo partly drawn) [Analog 019] | > 75 µM | 0.47 ± 0.06 µM | 0.66 ± 0.08 µM |  | 
31 | CC1=C(C=NO)C2=C(C)C3(CC3)[C@@](C)(O)C(=O)C2=C1 [Analog 126] | > 30 µM |  |  |  | 

— patent US12269793B2, “Affinity illudofulvene conjugates” (AF Chemicals, LLC, priority 2019, dated 2025)
